A short description of series [1]: AUC(0 to infinity) in Sprague-Dawley rat at 5 mg/kg, po and measured upto 24 hrs by LC-MS/MS analysis. Type of series: ADME, organism-based. The arrangement: time < 24 hrs, dose 5 mg/kg, route po. As to conditions: in vivo.
Series [2] is described as follows: Toxicity in Kunming mouse assessed as inflammatory infiltration in liver at 50 mg/kg, po administered and measured after 14 days by HE staining. Type of series: organism-based. Conditions: in vivo, 336 h, time 14 day.
Series [3] is described as follows: Subacute toxicity in Kunming mouse assessed as clonic convulsion at 50 mg/kg,po for 14 days. Type of series: organism-based. Conditions: in vivo, 336 h, time 14 day.
The nature of series [4]: AUC(0 to infinity) in Sprague-Dawley rat at 5 mg/kg, iv and measured upto 24 hrs by LC-MS/MS analysis. Conditions: in vivo. Set-up: dose 5 mg/kg, time < 24 hrs, route iv. It counts as ADME, organism-based.
Series [5] has as its target T1, Solute carrier family 2, facilitated glucose transporter member 9 (Mus musculus, UniProt Q3T9X0).
T1 sequence (Q3T9X0 whole entry): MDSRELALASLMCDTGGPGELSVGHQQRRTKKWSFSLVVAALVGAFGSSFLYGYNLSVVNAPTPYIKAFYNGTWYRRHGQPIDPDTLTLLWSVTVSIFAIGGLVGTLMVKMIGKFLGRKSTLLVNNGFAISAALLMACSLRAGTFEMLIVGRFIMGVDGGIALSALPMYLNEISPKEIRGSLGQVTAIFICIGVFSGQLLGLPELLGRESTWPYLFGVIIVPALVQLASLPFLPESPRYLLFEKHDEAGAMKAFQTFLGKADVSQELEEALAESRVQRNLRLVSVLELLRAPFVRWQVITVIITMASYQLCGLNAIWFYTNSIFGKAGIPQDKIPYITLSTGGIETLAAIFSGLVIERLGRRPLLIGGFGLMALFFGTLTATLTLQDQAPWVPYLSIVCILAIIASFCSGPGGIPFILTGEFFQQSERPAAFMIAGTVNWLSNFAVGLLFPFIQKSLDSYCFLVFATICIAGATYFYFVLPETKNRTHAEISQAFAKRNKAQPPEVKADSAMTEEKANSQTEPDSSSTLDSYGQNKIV
As to the kind of experiment: Inhibition of mouse GLUT9 transfected in human HEK293 cells assessed as inhibition of uric acid induced current by cell patch-clamp assay. It counts as cell-based. (The patch-clamp technique gives a direct electrical read-out from membranes.)

The nature of series [6]: Cytotoxicity against human HepG2 cells assessed as inhibition of cell growth at 400 uM incubated for 72 hrs by MTT assay relative to control. Type of series: toxicity, cell-based. Background: Formazan colour is commonly taken as a measure of viable cells.
Series [7] can be described thus: Toxicity in Kunming mouse assessed as dilated vacuolization in liver at 50 mg/kg, po and measured after 14 days by HE staining based microscopy. Type of series: organism-based. As to conditions: in vivo, 336 h, time 14 day.
Series [8] can be described thus: Hepatotoxicity in Kunming mouse assessed as reduction in GSH level in serum at 50 mg/kg, ip and incubated for 1 hr (reference value: 41.68 uM). It counts as toxicity, organism-based. Conditions: in vivo.
In series [9] the target is T2, Solute carrier family 22 member 6 (Homo sapiens, UniProt Q4U2R8).
T2 sequence (Q4U2R8 whole entry): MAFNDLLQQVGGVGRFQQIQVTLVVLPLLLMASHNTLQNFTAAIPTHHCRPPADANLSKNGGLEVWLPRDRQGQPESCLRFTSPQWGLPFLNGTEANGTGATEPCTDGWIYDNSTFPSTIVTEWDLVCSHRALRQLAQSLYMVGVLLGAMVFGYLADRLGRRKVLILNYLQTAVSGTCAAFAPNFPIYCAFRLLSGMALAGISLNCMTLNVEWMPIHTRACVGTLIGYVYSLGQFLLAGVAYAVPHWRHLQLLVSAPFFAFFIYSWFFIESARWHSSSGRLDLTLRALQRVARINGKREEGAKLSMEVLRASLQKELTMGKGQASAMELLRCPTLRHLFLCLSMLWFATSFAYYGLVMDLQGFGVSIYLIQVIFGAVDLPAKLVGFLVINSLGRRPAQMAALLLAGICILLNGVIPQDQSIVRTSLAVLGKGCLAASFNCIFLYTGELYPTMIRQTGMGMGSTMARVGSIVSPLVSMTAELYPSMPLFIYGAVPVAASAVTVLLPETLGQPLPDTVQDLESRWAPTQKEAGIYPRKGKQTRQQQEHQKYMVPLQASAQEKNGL
The experiment in a line: Inhibition of OAT1 (unknown origin) transfected in HEK293 cells assessed as inhibition of 6-CFL uptake preincubated for 30 mins followed by 6-CFL addition and measured for 15 mins by fluorescence based microplate reader analysis. Type of series: cell-based.

The nature of series [10]: Half life in Sprague-Dawley rat at 5 mg/kg, iv and measured upto 24 hrs by LC-MS/MS analysis. Type of series: ADME, organism-based. Conditions: in vivo.
Series [11] in a line: Cmax in Sprague-Dawley rat at 5 mg/kg, iv and measured upto 24 hrs by LC-MS/MS analysis. It counts as ADME, organism-based. The arrangement: time < 24 hrs, dose 5 mg/kg, route iv. As to conditions: in vivo.
The test system of a further series is HepG2. As to the kind of experiment: Cytotoxicity against human HepG2 cells assessed as reduction in cell viability at 100 uM incubated for 72 hrs by MTT assay. Type of series: toxicity, cell-based. Conditions: hepg2, 72 h.
A short description of series [12]: Cmax in Sprague-Dawley rat at 5 mg/kg, po and measured upto 24 hrs by LC-MS/MS analysis. It counts as ADME, organism-based. The arrangement: dose 5 mg/kg, time < 24 hrs, route po. As to conditions: in vivo.
Series [13] can be described thus: Toxicity in Kunming mouse assessed as irregular cell arrangements at 50 mg/kg, po and measured after 14 days by HE staining based microscopy. Type of series: organism-based. As to conditions: in vivo, 336 h, time 14 day.
Series [14] in a line: Hepatotoxicity in Kunming mouse assessed as reduction in serum GSH level at 50 mg/kg, ip and incubated for 12 hrs. It counts as toxicity, organism-based. Conditions: in vivo.
Series [15] in a line: Hepatotoxicity in Kunming mouse assessed as increase in ALT level in serum at 50 mg/kg,po for 14 days in presence of BSO. Type of series: toxicity, organism-based. Conditions: in vivo, 336 h, time 14 day.
The nature of series [16]: Renal toxicity in Kunming mouse assessed as effect on creatinine level at 50 mg/kg,po for 14 days. It counts as organism-based. As to conditions: in vivo, 336 h, time 14 day.

Take `CCc1oc2ccccc2c1C(=O)c1cc(Br)c(O)c(Br)c1` [BENZBROMARONE]: the AUC(0-inf) (usually the area under the concentration-time curve extrapolated to infinity) came out at 11.1 µg·h/mL in series [1] and 30.7 µg·h/mL in [4]. The Activity result was “Non-Toxic” in series [2]; “Non-Toxic” in series [3]; “Toxic” in series [7]; 10.72 µM in series [8]; “Toxic” with HepG2; “Non-Toxic” in [13]. The results for the Activity result in series [14], in series [15] and in series [16] were “Toxic”, “Non-Toxic” and “Non-Toxic”, respectively. Further, the values for the IC50 in series [5] and in series [9] were above 20 µM and 2.12 µM, respectively. Besides, in series [6], the inhibition (commonly the share of the control response that was lost under treatment) at 72 h, 400 µM worked out at 65.7%. For the same compound, the half-life (commonly how long it takes for the measured level to halve) in [10] was 3.03 h. Also, the Cmax (as a rule, the peak of the concentration-time curve) stood at 14.7 µg/mL in series [11] and 4.25 µg/mL in series [12].

The values above are taken from ChEMBL document CHEMBL5352398 (Eur J Med Chem, 2022).
